Measured values reported in patent US11414384B2, “P300/CBP hat inhibitors” (Constellation Pharmaceuticals, Inc., priority 2018, dated 2022).

Target: p300 HAT domain (residues 1287-1666) (Homo sapiens (Human), UniProt Q09472)
Assay: p300 HAT SPA assay (scintillation proximity assay, acetylation of biotinylated H3(1-21) peptide)
Assay type: biochemical
Details: p300 HAT domain; average of at least 2 replicate titrations; read-out: P300 HAT SPA IC50
In short: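 Purified p300 HAT domain reaction transferred to streptavidin plates to capture biotinylated H3(1-21) peptide, incubated 1.5 hr at RT, and read by scintillation proximity. IC50 values derived from concentration-response data.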

Chain of p300 HAT domain (residues 1287-1666) (Q09472 1287-1666): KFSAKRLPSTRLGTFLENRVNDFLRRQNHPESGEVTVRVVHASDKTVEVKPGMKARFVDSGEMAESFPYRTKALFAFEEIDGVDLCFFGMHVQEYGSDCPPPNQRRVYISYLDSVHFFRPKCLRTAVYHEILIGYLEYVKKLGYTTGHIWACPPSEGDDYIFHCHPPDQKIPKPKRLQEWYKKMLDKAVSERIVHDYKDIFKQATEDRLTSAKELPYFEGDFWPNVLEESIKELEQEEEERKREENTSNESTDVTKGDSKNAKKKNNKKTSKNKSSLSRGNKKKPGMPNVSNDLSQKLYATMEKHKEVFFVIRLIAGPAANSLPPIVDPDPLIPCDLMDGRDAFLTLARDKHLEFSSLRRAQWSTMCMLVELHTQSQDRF

Row | SMILES | IC50
1 | Cn1cc(-c2ccc3c(C(=O)C(NCCc4ccc(C(=O)O)cc4)c4ccccc4)c[nH]c3c2)cn1 (single isomer, unassigned) [138 Isomer 2] | 4.3 µM
2 | Cn1cc(-c2ccc3c(C(=O)C(NCCc4ccc(C(N)=O)cc4)c4ccccc4)c[nH]c3c2)cn1 (single isomer, unassigned) [139 Isomer 1] | 8.29 µM
3 | CC(Cc1ccc(C(N)=O)cc1)NC(C(=O)c1c[nH]c2ccccc12)c1ccccc1 (single isomer, unassigned) [140 Isomer 1] | > 5 µM
4 | CC(Cc1ccc(C(N)=O)cc1)NC(C(=O)c1c[nH]c2ccccc12)c1ccccc1 (single isomer, unassigned) [140 Isomer 2] | 1.54 µM
5 | CC(Cc1ccc(C(N)=O)cc1)NC(C(=O)c1c[nH]c2ccccc12)c1ccccc1 (single isomer, unassigned) [140 Isomer 3] | > 5 µM
6 | CC(Cc1ccc(C(N)=O)cc1)NC(C(=O)c1c[nH]c2ccccc12)c1ccccc1 (single isomer, unassigned) [140 Isomer 4] | > 5 µM
7 | CC(CNC(C(=O)c1c[nH]c2ccccc12)c1ccccc1)c1ccc(C(N)=O)cc1 (single isomer, unassigned) [141 Isomer 1] | 0.872 µM
8 | CC(CNC(C(=O)c1c[nH]c2ccccc12)c1ccccc1)c1ccc(C(N)=O)cc1 (single isomer, unassigned) [141 Isomer 2] | > 5 µM
9 | Cn1cc(-c2ccc3c(C(=O)C(NCCc4ccc(C(=O)O)cc4Cl)c4ccccc4)c[nH]c3c2)cn1 (single isomer, unassigned) [142 Isomer 1] | 3.27 µM
10 | COc1cccc2c(C(=O)[C@@H](NCCc3ccc(S(N)(=O)=O)cc3)c3ccccc3)c[nH]c12 (single isomer, unassigned) [144 Isomer 1] | 9.95 µM
11 | COc1ccc(CCN[C@H](C(=O)c2c[nH]c3c(C(C)C)cccc23)c2ccccc2)cc1 (single isomer, unassigned) [145 Isomer 2] | > 60 µM
12 | CNC(=O)c1cccc2c(C(=O)C(NCCc3ccc(Cl)cc3Cl)c3ccccc3)c[nH]c12 (single isomer, unassigned) [147 Isomer 1] | > 30 µM
13 | CN(C)C(=O)c1cccc2c(C(=O)C(NCCc3ccc(Cl)cc3Cl)c3ccccc3)c[nH]c12 (single isomer, unassigned) [148 Isomer 1] | > 30 µM
14 | CN(C)CCNC(=O)c1cccc2c(C(=O)C(NCCc3ccc(Cl)cc3Cl)c3ccccc3)c[nH]c12 (single isomer, unassigned) [149 Isomer 2] | 11.6 µM
15 | COCCNC(=O)c1cccc2c(C(=O)C(NCCc3ccc(Cl)cc3Cl)c3ccccc3)c[nH]c12 (single isomer, unassigned) [150 Isomer 2] | > 30 µM
16 | CNC(=O)c1ccc2c(C(=O)C(NCCc3ccc(Cl)cc3Cl)c3ccccc3)c[nH]c2c1 (single isomer, unassigned) [151 Isomer 1] | 11.5 µM
17 | CN(C)C(=O)c1ccc2c(C(=O)C(NCCc3ccc(Cl)cc3Cl)c3ccccc3)c[nH]c2c1 (single isomer, unassigned) [152 Isomer 1] | > 30 µM
18 | N#Cc1ccc(CCNC(C(=O)c2c[nH]c3cc(C(=O)NCC(F)(F)F)ccc23)c2ccccc2)cc1 (single isomer, unassigned) [157 Isomer 1] | 1.2 µM
19 | CNC(=O)CCc1ccc2c(C(=O)C(NCCc3ccc(F)cc3)c3ccccc3)c[nH]c2c1 (single isomer, unassigned) [158 Isomer 2] | > 5 µM
20 | O=C(O)CCc1ccc2c(C(=O)C(NCCc3ccc(F)cc3)c3ccccc3)c[nH]c2c1 (single isomer, unassigned) [159 Isomer 1] | 25.2 µM
21 | N#Cc1ccc(CCNC(C(=O)c2c[nH]c3cc(CC(=O)O)ccc23)c2ccccc2)cc1 (single isomer, unassigned) [160 Isomer 1] | > 5 µM
22 | N#Cc1ccc(CCNC(C(=O)c2c[nH]c3cc(CC(=O)O)ccc23)c2ccccc2)cc1 (single isomer, unassigned) [160 Isomer 2] | 4.01 µM
23 | CC(C)(O)CNC(=O)c1ccc2c(C(=O)C(NCCc3ccc(C#N)cc3)c3ccccc3)c[nH]c2c1 (single isomer, unassigned) [161 Isomer 1] | 3.35 µM
24 | N#Cc1ccc(CCNC(C(=O)c2c[nH]c3cc(C(=O)NC4CN(CC(F)(F)F)C4)ccc23)c2ccccc2)cc1 (single isomer, unassigned) [162 Isomer 1] | 4.86 µM
25 | N#Cc1ccc(CCNC(C(=O)c2c[nH]c3cc(C(=O)NC4CN(CC(F)(F)F)C4)ccc23)c2ccccc2)cc1 (single isomer, unassigned) [162 Isomer 2] | 0.135 µM
26 | CCN1CC(NC(=O)c2ccc3c(C(=O)C(NCCc4ccc(C#N)cc4)c4ccccc4)c[nH]c3c2)C1 (single isomer, unassigned) [163 Isomer 1] | 2.84 µM
27 | CCN(CC)C(=O)c1ccc2c(C(=O)C(NCCc3ccc(C#N)cc3)c3ccccc3)c[nH]c2c1 (single isomer, unassigned) [165 Isomer 1] | 4.33 µM

Row | SMILES | IC50
28 | CCN(CC)C(=O)c1ccc2c(C(=O)C(NCCc3ccc(C#N)cc3)c3ccccc3)c[nH]c2c1 (single isomer, unassigned) [165 Isomer 2] | 2.36 µM
29 | N#Cc1ccc(CCNC(C(=O)c2c[nH]c3cc(C(=O)NC4CS(=O)(=O)C4)ccc23)c2ccccc2)cc1 (single isomer, unassigned) [166 Isomer 1] | 0.123 µM
30 | CC(C)NC(=O)c1ccc2c(C(=O)C(NCCc3ccc(C#N)cc3)c3ccccc3)c[nH]c2c1 (single isomer, unassigned) [167 Isomer 1] | 0.0232 µM
31 | CC(C)NC(=O)c1ccc2c(C(=O)C(NCCc3ccc(C#N)cc3)c3ccccc3)c[nH]c2c1 (single isomer, unassigned) [167 Isomer 2] | 0.746 µM
32 | C[C@H](O)CNC(=O)c1ccc2c(C(=O)C(NCCc3ccc(C#N)cc3)c3ccccc3)c[nH]c2c1 (single isomer, unassigned) [168 Isomer 1] | 4.12 µM
33 | C[C@H](O)CNC(=O)c1ccc2c(C(=O)C(NCCc3ccc(C#N)cc3)c3ccccc3)c[nH]c2c1 (single isomer, unassigned) [168 Isomer 2] | 0.0531 µM
34 | C[C@H](NC(=O)c1ccc2c(C(=O)C(NCCc3ccc(C#N)cc3)c3ccccc3)c[nH]c2c1)C(F)(F)F (single isomer, unassigned) [169 Isomer 1] | 1.79 µM
35 | C[C@H](NC(=O)c1ccc2c(C(=O)C(NCCc3ccc(C#N)cc3)c3ccccc3)c[nH]c2c1)C(F)(F)F (single isomer, unassigned) [169 Isomer 2] | 0.0871 µM
36 | C[C@@H](NC(=O)c1ccc2c(C(=O)C(NCCc3ccc(C#N)cc3)c3ccccc3)c[nH]c2c1)C(F)(F)F (single isomer, unassigned) [170 Isomer 1] | 0.296 µM
37 | C[C@@H](NC(=O)c1ccc2c(C(=O)C(NCCc3ccc(C#N)cc3)c3ccccc3)c[nH]c2c1)C(F)(F)F (single isomer, unassigned) [170 Isomer 2] | 4.11 µM
38 | N#Cc1ccc(CCNC(C(=O)c2c[nH]c3cc(C(=O)N4CCCC4)ccc23)c2ccccc2)cc1 (single isomer, unassigned) [171 Isomer 1] | > 5 µM
39 | N#Cc1ccc(CCNC(C(=O)c2c[nH]c3cc(C(=O)N4CCCC4)ccc23)c2ccccc2)cc1 (single isomer, unassigned) [171 Isomer 2] | 0.932 µM
40 | CN(C)C(=O)c1ccc2c(C(=O)C(NCCc3ccc(C#N)cc3)c3ccccc3)c[nH]c2c1 (single isomer, unassigned) [172 Isomer 1] | 4.24 µM
41 | CN(C)C(=O)c1ccc2c(C(=O)C(NCCc3ccc(C#N)cc3)c3ccccc3)c[nH]c2c1 (single isomer, unassigned) [172 Isomer 2] | 0.657 µM
42 | C[C@@H](O)CNC(=O)c1ccc2c(C(=O)C(NCCc3ccc(C#N)cc3)c3ccccc3)c[nH]c2c1 (single isomer, unassigned) [173 Isomer 1] | 1.7 µM
43 | C[C@@H](O)CNC(=O)c1ccc2c(C(=O)C(NCCc3ccc(C#N)cc3)c3ccccc3)c[nH]c2c1 (single isomer, unassigned) [173 Isomer 2] | 0.0211 µM
44 | CS(=O)(=O)CCCNC(=O)c1ccc2c(C(=O)C(NCCc3ccc(C#N)cc3)c3ccccc3)c[nH]c2c1 (single isomer, unassigned) [175 Isomer 1] | 0.917 µM
45 | N#Cc1ccc(CCNC(C(=O)c2c[nH]c3cc(C(=O)NCCN4CCCC4)ccc23)c2ccccc2)cc1 (single isomer, unassigned) [176 Isomer 1] | 0.0538 µM
46 | N#Cc1ccc(CCNC(C(=O)c2c[nH]c3cc(C(=O)NCCN4CCCC4)ccc23)c2ccccc2)cc1 (single isomer, unassigned) [176 Isomer 2] | 1.11 µM
47 | Cn1cnc(-c2ccc3c(C(=O)[C@@H](NCCc4ccc(C(N)=O)cc4)c4ccccc4)c[nH]c3c2)c1 (single isomer, unassigned) [177 Isomer 1] | > 5 µM
48 | CN1CCC(c2ccc3c(C(=O)C(NCCc4ccc(C(N)=O)cc4)c4ccccc4)c[nH]c3c2)CC1 (single isomer, unassigned) [178 Isomer 1] | > 5 µM
49 | CN1CCC(c2ccc3c(C(=O)C(NCCc4ccc(C(N)=O)cc4)c4ccccc4)c[nH]c3c2)CC1 (single isomer, unassigned) [178 Isomer 2] | 2.07 µM
50 | Cn1cc(-c2ccc3c(C(=O)C(NCCc4ccc(C(N)=O)cc4)c4ccccc4)cnn3c2)cn1 (single isomer, unassigned) [179 Isomer 2] | 0.248 µM
51 | Cn1cc(-c2ccc3c(C(=O)C(NCCc4ccc(C(N)=O)cc4)c4ccccc4)c[nH]c3c2)nn1 (single isomer, unassigned) [180 Isomer 1] | 4.33 µM
52 | NC(=O)c1ccc(CCNC(C(=O)c2c[nH]c3cc(-n4ccnc4)ccc23)c2ccccc2)cc1 (single isomer, unassigned) [181 Isomer 2] | > 5 µM
53 | NC(=O)c1ccc(CCNC(C(=O)c2c[nH]c3cc(-c4cnn(CCO)c4)ccc23)c2ccccc2)cc1 (single isomer, unassigned) [182 Isomer 1] | > 5 µM
54 | NC(=O)c1ccc(CCNC(C(=O)c2c[nH]c3cc(-c4cnn(CCO)c4)ccc23)c2ccccc2)cc1 (single isomer, unassigned) [182 Isomer 2] | 0.514 µM
